Laboratory results taken from patent publication US20060167083A1, “Therapeutic methods and compositions involving isoflav-3-ene and isoflavan structures” (priority 2002, published 2006).
≈ marks a conversion by molar mass, not a printed value. Where two headings read alike, the source gives them in different places.

What was measured:
IL-8 = IL-8 secretion from endothelial cells (immunoassay); type: cell-based, human; settings: TNF stimulated endothelial cells
Description: IL8 assay: IL-8 assays were performed using a “Quantikine Human IL-8 Immunoassay” (R & D Systems, Minneapolis Minn. USA).

colon cancer line HT29 = test: Anti-proliferative effect on HT29; type: cell-based; settings: Homo sapiens, HT-29
E selectin = E selectin expression assay on endothelial cells (FACS); type: cell-based, human; settings: 10 μg/ml 18 hours prior to stimulation; TNF and IL-1
Description: E selectin and VCAM-1 assays: HUVEC were plated at 5×10^5 cells per 6 well dish. Cells were treated with DMSO vehicle or De (10 μg/ml final) for 18 hours prior to TNFα (1 ng/ml) addition. After 4 or 18 hours, cells were washed with PBS and incubated with antibodies against E selectin (Mab49-1B11) or VCAM-1 (Nab51-10C9) for 30 min. Goat F(ab′)2 fragment mouse-IgG(H+L)-FITC antibody (Immunotech, Marseille, France) was then added for 30 min. The cells were then trypsinised and FACS analysed on a Coulter Epics® XL-MCL (Beckman Coulter). Results are expressed as arbitrary units relating to the mean intensity of FITC fluorescence.

[1] = test system: Ras transformed NIH 3T3 cells; test: Focus formation assay; type: cell-based; settings: 10 μg/ml, 3 weeks
Description: Focus formation assay: Low passage NIH 3T3 cells were transfected with either human ras gene (Ras) or empty vector (Vect) control^19. Two days later the transfected cells were seeded in 6 well plates. After reaching confluence, the cells were cultured in the vehicle DMSO or De (10 μg/ml final) for 3 weeks with media change every 3-4 days (±De). Foci were scored after staining with 0.5% crystal violet. One experiment of two performed is shown.

[2] = test system: LNCaP human prostate cells; test: Athymic mice xenograft assay; type: in vivo, athymic Balb/c mice; settings: 2 mg uid orally, 5 days per week, 58 days; treated versus control group, p<0.0003
Description: Athymic mice xenograft assay: LNCaP human prostate cells were implanted subcutaneously into athymic Balb/c mice and De (2 mg uid) administered orally from the time of cell inoculation for 5 days per week. Animals were killed 58 days post-implantation and tumour mass (mg) calculated from the formula (width^2×length)/2 as used in NCI.

[3] = test system: Human umbilical vein endothelial cells (HUVEC); test: Endothelial cell proliferation assay (MTT); type: cell-based
Description: Cells: Human umbilical vein endothelial cells (HUVEC) were prepared and grown as previously described^30. The cells were used between passages 2 and 6 for all experiments. The human prostatic adenocarcinoma cell line, LNCaP was obtained from American Tissue Type Collection and maintained according to the instructions of the supplier.
(§1) Proliferation assay: HUVEC were seeded at 3×10^3 cells per gelatin-coated microtitre well and grown in complete medium for 3 days. Dehydroequol (De) was added 3 hours after plating. Proliferation was measured using the MTT assay (Promega, Wis., USA) and is given as the rate of proliferation over the 3 days±SEM of quadruplicate determinations for each group. Proliferation of LNCaP cells was determined using the MTT assay. Cells were seeded at 2.5×10^3 cells per microtitre well. De was added 4 days after plating and assayed after a further 5 days of growth. Cell viability is expressed as a percentage of control untreated cells.

breast cancer line MCF7 = test: Anti-proliferative effect on MCF7; type: cell-based; settings: Homo sapiens
[4] = test system: human prostatic adenocarcinoma cell line LNCaP; test: Proliferation of LNCaP cells, MTT assay; type: cell-based
Description: as §1

tNOX = biological target: T1, tNOX (Homo sapiens, UniProt Q16206); test: tNOX inhibition, 96-well plate assay with HeLa in dithiodipyridine substrate; type: cell-based; settings: 10 μm
T1 construct: endogenous in cells; host or cells: HeLa (human cervical carcinoma)
From the text: A 96-well plate assay was used containing human cervical carcinoma (HeLa) in a dithiodipyridine substrate.

sphingomyelinase = test: TNF-stimulated sphingomyelinase activity; type: cell-based; settings: data not shown
[5] = test system: prostate cancer line DU145; test: Anti-proliferative effect on DU145; type: cell-based; settings: Homo sapiens, DU-145
human topo I = biological target: T2, human topo I (Homo sapiens, UniProt P11387); test: Topo I-mediated plasmid relaxation assay; type: biochemical; settings: concentrations up to 100 μg/ml, absence of ATP
T2 construct: purchased Topogen (Columbus, Ohio)
T2 sequence (P11387 1-765): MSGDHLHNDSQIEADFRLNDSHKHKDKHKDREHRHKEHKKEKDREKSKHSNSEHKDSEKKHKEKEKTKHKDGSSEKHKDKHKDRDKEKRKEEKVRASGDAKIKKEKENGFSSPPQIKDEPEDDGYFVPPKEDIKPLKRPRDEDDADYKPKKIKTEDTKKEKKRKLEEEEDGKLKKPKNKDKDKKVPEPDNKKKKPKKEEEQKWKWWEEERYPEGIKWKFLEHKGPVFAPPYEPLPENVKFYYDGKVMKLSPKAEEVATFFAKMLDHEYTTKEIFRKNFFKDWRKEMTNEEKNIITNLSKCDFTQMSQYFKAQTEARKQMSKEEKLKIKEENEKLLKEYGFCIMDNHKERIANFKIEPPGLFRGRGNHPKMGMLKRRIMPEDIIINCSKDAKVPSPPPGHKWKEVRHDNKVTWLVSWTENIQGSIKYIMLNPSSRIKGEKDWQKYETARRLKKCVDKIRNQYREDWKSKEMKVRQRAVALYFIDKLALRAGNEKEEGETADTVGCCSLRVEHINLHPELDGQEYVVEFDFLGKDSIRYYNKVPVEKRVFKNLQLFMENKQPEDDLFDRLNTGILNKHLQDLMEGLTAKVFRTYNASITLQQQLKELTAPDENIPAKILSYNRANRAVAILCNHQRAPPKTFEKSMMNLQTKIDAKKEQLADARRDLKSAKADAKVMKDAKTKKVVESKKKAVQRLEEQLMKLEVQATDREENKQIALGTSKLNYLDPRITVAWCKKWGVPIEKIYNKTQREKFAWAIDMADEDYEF
Description: Topo I activity was determined by converting supercoiled pUC8 DNA (SC) into its relaxed from (REL).
For the determination of topoisomerase (topo) I catalytic activity, pUC8 DNA was used as the substrate in a reaction volume of 20 μl containing the following: 10 mM Tris-HCl, pH 7.9, 1 mM EDTA, 150 mM NaCl, 0.1% BSA, 0.1 mM spermidine, 5% glycerol, and 2 units of purified human topo I. The inhibitor, when applicable, was added as indicated, and the reaction was initiated by the addition of the enzyme. Reactions were carried out at 37° C. for 30 min. Gel electrophoresis was performed at 4 V/cm for 5 h in Tris-borate-EDTA buffer. For the quantitative determination of topo I activity, photographic negatives were scanned. The area representing supercoiled DNA, migrating as a single band at the bottom of the gel, was determined. The concentrations of the inhibitor that prevented 50% of the supercoiled DNA from being converted into relaxed DNA (IC50 values) were determined by averaging the data from at least three experiments.

T1 sequence (Q16206 whole entry): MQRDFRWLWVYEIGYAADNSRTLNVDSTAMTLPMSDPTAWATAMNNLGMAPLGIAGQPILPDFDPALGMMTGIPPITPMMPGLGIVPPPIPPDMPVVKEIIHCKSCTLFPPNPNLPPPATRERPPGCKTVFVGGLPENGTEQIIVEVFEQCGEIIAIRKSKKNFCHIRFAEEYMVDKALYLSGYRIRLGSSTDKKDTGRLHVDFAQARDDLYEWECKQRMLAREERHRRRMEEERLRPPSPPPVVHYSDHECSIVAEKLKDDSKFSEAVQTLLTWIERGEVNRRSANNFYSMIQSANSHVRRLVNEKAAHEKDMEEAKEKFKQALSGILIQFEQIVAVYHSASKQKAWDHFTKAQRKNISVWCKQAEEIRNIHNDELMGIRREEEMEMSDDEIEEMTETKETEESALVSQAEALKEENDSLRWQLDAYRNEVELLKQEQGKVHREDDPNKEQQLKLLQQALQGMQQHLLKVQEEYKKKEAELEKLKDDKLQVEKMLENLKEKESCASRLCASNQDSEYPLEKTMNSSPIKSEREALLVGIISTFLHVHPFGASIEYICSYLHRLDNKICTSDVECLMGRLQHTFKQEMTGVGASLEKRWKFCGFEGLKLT

## Oc1ccc(C2=Cc3ccc(O)cc3OC2)cc1 [Dehydroequol, 4′,7-dihydroxyisoflav-3-ene]
IL-8
  secretion of EL-8: inhibits the secretion
Colon cancer line HT29
  IC50: 15 µg/mL (≈ 62.4 µM)
E selectin
  induction of E selectin on the endothelium: inhibits the induction
[1]
  inhibition of development of colonies (foci): completely inhibited
[2]
  tumour growth inhibition: 49%
[3]
  cell death in proliferation assays: did not cause cell death
[3]; Homo sapiens, HUVEC, 10 μg/ml, five experiments
  inhibition at 10 µg/mL: 91%
Breast cancer line MCF7
  IC50: 1.5 µg/mL (≈ 6.24 µM)
[4]; LNCaP, read-out: IC50 anti-proliferative
  IC50: 1.5 µg/mL
[4]; LnCaP, n=3 separate experiments, read-out: In vitro cytotoxicity IC50
  IC50: 4.4 µM
tNOX
  inhibition of tNOX activity: inhibit tNOX activity
sphingomyelinase
  effect on TNF-stimulated sphingomyelinase activity: does not affect
[5]
  IC50: 3 µg/mL (≈ 12.5 µM)
Human topo I
  inhibition of topo I-catalysed relaxation of pUC8 DNA: did not inhibit
